Source: ChEMBL document CHEMBL1148874, “Design, synthesis, and anti-HIV activity of 2',3'-didehydro-2',3'-dideoxyuridine (d4U), 2',3'-dideoxyuridine (ddU) phosphoramidate 'ProTide' derivatives” (Bioorg Med Chem Lett, 2007)

Experiments:
[1] = system: Human immunodeficiency virus 1; test: Inhibition of HIV1-induced cytopathogenicity in CEM/0 cells; format: functional, organism-based; settings: Human immunodeficiency virus 1, CCRF-CEM
[2] = system: Human immunodeficiency virus 2; test: Inhibition of HIV2-induced cytopathogenicity in CEM/0 cells; format: functional, organism-based; settings: Human immunodeficiency virus 2, CCRF-CEM
[3] = Cytotoxicity against CEM/0 cells; format: cell-based, CCRF-CEM; settings: human

Row | Compound | EC50 [1] | EC50 [2] | CC50 [3]
1 | COC(=O)[C@@H](C)NP(=O)(OC[C@@H]1C=C[C@H](n2ccc(=O)[nH]c2=O)O1)Oc1ccccc1 (some centres not stated) | > 50 µM | > 10 µM | 96.6 µM
2 | CCOC(=O)[C@@H](C)NP(=O)(OC[C@@H]1C=C[C@H](n2ccc(=O)[nH]c2=O)O1)Oc1ccccc1 (some centres not stated) | > 50 µM | > 50 µM | 212 µM
3 | C[C@@H](NP(=O)(OC[C@@H]1C=C[C@H](n2ccc(=O)[nH]c2=O)O1)Oc1ccccc1)C(=O)OC(C)(C)C (some centres not stated) | > 250 µM | > 250 µM | > 250 µM
4 | C[C@@H](NP(=O)(OC[C@@H]1CC[C@H](n2ccc(=O)[nH]c2=O)O1)Oc1ccccc1)C(=O)OC(C)(C)C (some centres not stated) | > 250 µM | > 250 µM | > 250 µM
5 | Cc1cn([C@H]2C=C[C@@H](CO)O2)c(=O)[nH]c1=O [STAVUDINE] |  | 0.77 µM | 174 µM

The next lines start with results.

Row | EC50 [1] | EC50 [2] | Compound | CC50 [3]
6 | > 250 µM | > 250 µM | O=c1ccn([C@H]2CC[C@@H](CO)O2)c(=O)[nH]1 | > 250 µM
7 | 25 µM | 25 µM | C[C@@H](NP(=O)(OC[C@@H]1C=C[C@H](n2ccc(=O)[nH]c2=O)O1)Oc1cccc2ccccc12)C(=O)OCc1ccccc1 (some centres not stated) | 100 µM
8 | 43.3 µM | 93.3 µM | CCOC(=O)[C@@H](C)NP(=O)(OC[C@@H]1CC[C@H](n2ccc(=O)[nH]c2=O)O1)Oc1ccccc1 (some centres not stated) | > 250 µM
9 | 36.7 µM | ≥ 50 µM | COC(=O)[C@@H](C)NP(=O)(OC[C@@H]1CC[C@H](n2ccc(=O)[nH]c2=O)O1)Oc1ccccc1 (some centres not stated) | 121 µM
10 | 15 µM | 20 µM | C[C@@H](NP(=O)(OC[C@@H]1CC[C@H](n2ccc(=O)[nH]c2=O)O1)Oc1cccc2ccccc12)C(=O)OCc1ccccc1 (some centres not stated) | 96.9 µM
11 | > 50 µM | > 50 µM | O=c1ccn([C@H]2C=C[C@@H](CO)O2)c(=O)[nH]1 | 207 µM
